What is called remaining activity is the signal under treatment as a percentage of the control signal. As usually defined, the IC50 is the midpoint of a concentration-inhibition curve.

From PMC7024175, “In Depth Analysis of Kinase Cross Screening Data to Identify CAMKK2 Inhibitory Scaffolds” (Molecules, 2020) come the findings set out here.

Read-outs that look alike come from different tables or passages of the source.

This test deals with T1, CAMKK2 (Homo sapiens, UniProt Q96RR4).
T1 construct: made in house
Briefly: CAMKK2 enzyme assay (radiometric, CaMKKtide). As to conditions: for remaining activity at 0.01 µM / remaining activity at 0.1 µM / remaining activity at 1 µM: read-out: PoC (activity remaining). Type of test: biochemical.

Setting [1] is: 8-point full dose response, read-out: IC50.

T1 sequence (Q96RR4 whole entry): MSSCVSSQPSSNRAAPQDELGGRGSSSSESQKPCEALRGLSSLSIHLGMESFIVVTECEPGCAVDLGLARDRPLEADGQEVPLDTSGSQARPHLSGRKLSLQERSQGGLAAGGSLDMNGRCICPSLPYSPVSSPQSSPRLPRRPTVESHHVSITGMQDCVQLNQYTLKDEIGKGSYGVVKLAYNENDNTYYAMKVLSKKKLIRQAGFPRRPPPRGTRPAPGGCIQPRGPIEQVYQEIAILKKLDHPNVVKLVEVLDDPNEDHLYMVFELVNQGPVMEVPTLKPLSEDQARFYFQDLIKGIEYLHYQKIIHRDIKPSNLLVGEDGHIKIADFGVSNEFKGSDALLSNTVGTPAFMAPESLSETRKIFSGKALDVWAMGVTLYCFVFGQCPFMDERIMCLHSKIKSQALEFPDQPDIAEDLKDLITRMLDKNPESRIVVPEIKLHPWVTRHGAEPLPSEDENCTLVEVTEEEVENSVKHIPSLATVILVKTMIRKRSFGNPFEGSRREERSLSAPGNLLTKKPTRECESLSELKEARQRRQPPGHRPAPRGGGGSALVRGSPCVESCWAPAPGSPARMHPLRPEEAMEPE
Description: CAMKK2 activity was determined by measuring the transfer of radiolabeled phosphate from [γ-^32P]-ATP to a synthetic peptide substrate (CaMKKtide) as previously described [49]. Briefly, purified recombinant CAMKK2 (100 pM) was incubated in assay buffer (50 mM HEPES [pH 7.4], 1 mM DTT, 0.02% [v/v] Brij-35) containing 200 μM CaMKKtide (Genscript), 100 μM CaCl2, 1 μM CaM (Sigma-Aldrich, Castle Hill, NSW, Australia) 200 μM [γ-^32P]-ATP (Perkin Elmer, Boston, MA, USA), 5 mM MgCl2 (Sigma-Aldrich, Castle Hill, NSW, Australia) and various concentrations of inhibitors (0–1 μM) in a standard 30 μl assay for 10 min at 30 °C. Reactions were terminated by spotting 15 μl onto P81 phosphocellulose paper (GE Lifesciences, Paramatta, NSW, Australia) and washing extensively in 1% phosphoric acid (Sigma-Aldrich, Castle Hill, NSW, Australia). Radioactivity was quantified by liquid scintillation counting.

On to `C[C@@H](Oc1cc(-n2cnc3ccc(CN4CCN(C)CC4)cc32)sc1C(N)=O)c1ccccc1C(F)(F)F` [GSK461364], for which the remaining activity at 0.01 µM (0.01 µM inhibitor) came to 95%. Moreover, under “0.1 µM inhibitor”, the remaining activity at 0.1 µM stood at 96%. The remaining activity at 1 µM (1.0 µM inhibitor) was found to be 92%.

For the compound `O=C1NC(=O)c2c1c1c3ccccc3n3c1c1c2c2ccccc2n1C1CCC3O1` [SB 218078], the “PoC (activity remaining)” value (0.01 µM inhibitor) was determined as 98%, the “PoC (activity remaining)” value (0.1 µM inhibitor) amounted to 86% and the “PoC (activity remaining)” value (1.0 µM inhibitor) turned out to be 64%.

Turning to `CCN1CCN(c2ccc(Nc3cc(N(C)C(=O)Nc4c(Cl)c(OC)cc(OC)c4Cl)ncn3)cc2)CC1` [BGJ 398], the remaining activity at 0.01 µM (0.01 µM inhibitor) amounted to 100%. In addition, the remaining activity at 0.1 µM (0.1 µM inhibitor) stood at 99%. In addition, under “1.0 µM inhibitor”, the remaining activity at 1 µM worked out at 96%.

Regarding `O=C1Nc2cc(Br)ccc2/C1=C1/Nc2ccccc2/C1=N\O` [BIO], the “PoC (activity remaining)” value came to 102% (0.01 µM inhibitor), 100% (0.1 µM inhibitor) and 89% (1.0 µM inhibitor).

As to `CC(C)[C@H](CO)Nc1nc(Nc2cc(N)cc(Cl)c2)c2ncn(C(C)C)c2n1` [Aminopurvalanol], the remaining activity at 0.01 µM (0.01 µM inhibitor) came out at 100%. For the same compound, the remaining activity at 0.1 µM (0.1 µM inhibitor) came out at 80%. Also, the remaining activity at 1 µM (1.0 µM inhibitor) came to 22%.

Turning to `O=C(c1ccc(/C=C/c2n[nH]c3ccccc23)cc1)N1CCNCC1` [KW2449], for the setting “0.01 µM inhibitor”, the remaining activity at 0.01 µM is 96%. Also, the remaining activity at 0.1 µM (0.1 µM inhibitor) came to 84%. In addition, the remaining activity at 1 µM (1.0 µM inhibitor) was determined as 42%.

Consider `CNC(=O)c1ccccc1Nc1nc(Nc2ccc(N3CCOCC3)cc2OC)ncc1Cl` [TAE226], for which the “PoC (activity remaining)” value is, setting by setting: (0.01 µM inhibitor) 104%; (0.1 µM inhibitor) 97%; (1.0 µM inhibitor) 90%.

On to `O=C(Nc1cccc(Nc2ncc(Br)c(NCCc3cnc[nH]3)n2)c1)N1CCCC1` [BX912], for which the “PoC (activity remaining)” value reads like this: (0.01 µM inhibitor) 100%; (0.1 µM inhibitor) 90%; (1.0 µM inhibitor) 26%.

Turning to `COc1cc(N2CCC(N3CCN(C)CC3)CC2)ccc1Nc1ncc(Cl)c(Nc2ccccc2P(C)(C)=O)n1` [AP26113], the remaining activity at 0.01 µM was determined as 60%, the remaining activity at 0.1 µM turned out to be 20% and the remaining activity at 1 µM is 2%.

As to `CO[C@@H]1[C@H](N(C)C(=O)c2ccccc2)C[C@H]2O[C@]1(C)n1c3ccccc3c3c4c(c5c6ccccc6n2c5c31)C(=O)NC4` [Midostaurin], the remaining activity at 0.01 µM came out at 97%, the remaining activity at 0.1 µM worked out at 82% and the remaining activity at 1 µM was found to be 38%.

Take `Cc1cc2c(F)c(Oc3ncnn4cc(OC[C@@H](C)O)c(C)c34)ccc2[nH]1` [Brivanib]: for the setting “0.01 µM inhibitor”, the remaining activity at 0.01 µM turned out to be 101%. For the same compound, the remaining activity at 0.1 µM (0.1 µM inhibitor) amounted to 100%. Moreover, the remaining activity at 1 µM (1.0 µM inhibitor) was determined as 100%.

Turning to `Cc1[nH]c(/C=C2\C(=O)Nc3ccc(S(=O)(=O)Cc4c(Cl)cccc4Cl)cc32)c(C)c1C(=O)N1CCC[C@@H]1CN1CCCC1` [PHA665752], the remaining activity at 0.01 µM (0.01 µM inhibitor) came out at 109%. The remaining activity at 0.1 µM (0.1 µM inhibitor) was 93%. Further, the remaining activity at 1 µM (1.0 µM inhibitor) came to 67%.

In the case of `Cc1nc(Nc2[nH]nc3c2CN(C(=O)N[C@H](CN(C)C)c2ccccc2)C3(C)C)c2sccc2n1` [PF3758309], the remaining activity at 0.01 µM (0.01 µM inhibitor) turned out to be 95%. Also, the remaining activity at 0.1 µM (0.1 µM inhibitor) turned out to be 78%. In addition, where the note is “1.0 µM inhibitor”, the remaining activity at 1 µM came out at 71%.

For the compound `COc1cc(N2CCC(N)CC2)ccc1Nc1ncc(Cl)c(-c2c[nH]c3ccccc23)n1` [AZD 3463], the “PoC (activity remaining)” value stood at 103% (0.01 µM inhibitor), 74% (0.1 µM inhibitor) and 26% (1.0 µM inhibitor). The IC50 under setting [1] is 185 nM.

On to `CNC(=O)c1nn(C)c2c1C(C)(C)Cc1cnc(Nc3ccc(N4CCN(C)CC4)cc3)nc1-2` [Milciclib], for which the remaining activity at 0.01 µM (0.01 µM inhibitor) came to 107%. Further, the remaining activity at 0.1 µM (0.1 µM inhibitor) was determined as 105%. Under “1.0 µM inhibitor”, the remaining activity at 1 µM was found to be 76%.

Turning to `CC(C)c1cc(CNc2nc(Nc3cc(C4CC4)[nH]n3)cc(N3CCN(C)CC3)n2)on1` [XL228], the remaining activity at 0.01 µM (0.01 µM inhibitor) amounted to 94%. For the same compound, the remaining activity at 0.1 µM (0.1 µM inhibitor) was 65%. The remaining activity at 1 µM (1.0 µM inhibitor) was 26%.

As to `CCOc1cc2ncc(C#N)c(Nc3ccc(F)c(Cl)c3)c2cc1NC(=O)/C=C/CN(C)C` [Pelitinib], the remaining activity at 0.01 µM (0.01 µM inhibitor) came out at 100%. The remaining activity at 0.1 µM (0.1 µM inhibitor) was 84%. In addition, the remaining activity at 1 µM (1.0 µM inhibitor) worked out at 60%.

Consider `O=C(Nc1nc2cccc(-c3ccc(CN4CCS(=O)(=O)CC4)cc3)n2n1)C1CC1` [Filgotinib], for which the remaining activity at 0.01 µM (0.01 µM inhibitor) came out at 96%. The remaining activity at 0.1 µM (0.1 µM inhibitor) was 86%. In addition, the remaining activity at 1 µM (1.0 µM inhibitor) is 72%.

As to `C[C@]12O[C@H](C[C@]1(O)CO)n1c3ccccc3c3c4c(c5c6ccccc6n2c5c31)CNC4=O` [Lestaurtinib], the remaining activity at 0.01 µM was found to be 64%, the remaining activity at 0.1 µM is 33% and the remaining activity at 1 µM was determined as 3%.

On to `CCc1nc(C(N)=O)c(Nc2ccc(N3CCC(N4CCN(C)CC4)CC3)c(OC)c2)nc1NC1CCOCC1` [Gilteritinib], for which, under “0.01 µM inhibitor”, the remaining activity at 0.01 µM turned out to be 84%. Further, the remaining activity at 0.1 µM (0.1 µM inhibitor) was determined as 74%. The remaining activity at 1 µM (1.0 µM inhibitor) was 18%. Under setting [1], the half-inhibitory concentration (IC50) worked out at 204 nM.

For `CC1(COc2ccc3c(c2)ncn3-c2ccc3cccc(N4CCC(N)CC4)c3n2)COC1` [Crenolanib], the remaining activity at 0.01 µM (0.01 µM inhibitor) came out at 118%. Where the note is “0.1 µM inhibitor”, the remaining activity at 0.1 µM stood at 92%. In addition, the remaining activity at 1 µM (1.0 µM inhibitor) was 47%.

On to `Cn1c2ccccc2c2c3c(c4c5ccccc5n(CCC#N)c4c21)CNC3=O` [Go6976], for which the remaining activity at 0.01 µM (0.01 µM inhibitor) came out at 97%. For the same compound, the remaining activity at 0.1 µM (0.1 µM inhibitor) was 92%. The remaining activity at 1 µM (1.0 µM inhibitor) came to 80%.

For `Cc1c[nH]c(-c2cnc(NCCNc3ccc(C#N)cn3)nc2-c2ccc(Cl)cc2Cl)n1` [CHIR99021], the remaining activity at 0.01 µM (0.01 µM inhibitor) was determined as 98%. The remaining activity at 0.1 µM (0.1 µM inhibitor) is 101%. Also, the remaining activity at 1 µM (1.0 µM inhibitor) was found to be 96%.

Turning to `c1ccc2c(-c3cnn4cc(-c5ccc(N6CCNCC6)cc5)cnc34)ccnc2c1` [LDN 193189], the “PoC (activity remaining)” value is, setting by setting: (0.01 µM inhibitor) 68%; (0.1 µM inhibitor) 62%; (1.0 µM inhibitor) 50%. The IC50 under setting [1] stood at 146 nM.

In the case of `Cc1ncc(CCCN(C)C)cc1Nc1ncc2c(n1)-c1ccc(C(F)(F)F)cc1NC(=S)C2` [MLN 0905], the “PoC (activity remaining)” value is recorded as 99% (0.01 µM inhibitor), 95% (0.1 µM inhibitor) and 86% (1.0 µM inhibitor).

On to `CN(C)S(=O)(=O)c1ccc2c(c1)/C(=C/c1cc3c([nH]1)CCCC3)C(=O)N2` [SU6656], for which, where the note is “0.01 µM inhibitor”, the remaining activity at 0.01 µM worked out at 95%. The remaining activity at 0.1 µM (0.1 µM inhibitor) was 86%. In addition, the remaining activity at 1 µM (1.0 µM inhibitor) stood at 71%.

Regarding `O=C(NCCCNc1nc(Nc2cccc(CN3CCOCC3)c2)ncc1C1CC1)C1CCC1` [MRT67307], the “PoC (activity remaining)” value by setting is: (0.01 µM inhibitor) 92%; (0.1 µM inhibitor) 86%; (1.0 µM inhibitor) 35%.

With `Nc1nc(Nc2ccc(S(N)(=O)=O)cc2)nn1C(=S)Nc1c(F)cccc1F` [CDK 1/2 Inhibitor III], half-maximal inhibition (IC50) was put at 19 nM, the remaining activity at 0.01 µM amounted to 69%, the remaining activity at 0.1 µM worked out at 17% and the remaining activity at 1 µM came out at 3%.

Regarding `COCCOc1ccc2c(c1)ncn2-c1ccc2cccc(N3CCC(N)CC3)c2n1` [CP 673451], the remaining activity at 0.01 µM (0.01 µM inhibitor) stood at 88%. For the setting “0.1 µM inhibitor”, the remaining activity at 0.1 µM was 46%. Also, for the setting “1.0 µM inhibitor”, the remaining activity at 1 µM came to 17%. Further, under setting [1], the IC50 came to 73 nM.
